Assay results as given in ChEMBL document CHEMBL1137483, “Novel chalcones as probes for in vivo imaging of beta-amyloid plaques in Alzheimer's brains” (Bioorg Med Chem, 2007).

Assays:
[1] = Displacement of [125I](E)-3-(4-(Dimethylamino-phenyl)-1-(4-iodophenyl)prop-2-en-1-one from beta amyloid(1-42) aggregates; design: species or system Homo sapiens
Blood [2] = assay: Biodistribution in ddY mouse blood at 0.2 to 0.3 uCi, iv after 2 mins; type: ADME, organism-based; settings: in vivo
Liver [3] = assay: Biodistribution in ddY mouse liver at 0.2 to 0.3 uCi, iv after 2 mins; type: ADME, organism-based; settings: in vivo
Kidney [4] = assay: Biodistribution in ddY mouse kidney at 0.2 to 0.3 uCi, iv after 2 mins; type: ADME, organism-based; settings: in vivo
Intestine [5] = assay: Biodistribution in ddY mouse intestine at 0.2 to 0.3 uCi, iv after 2 mins; type: ADME, organism-based; settings: in vivo
Spleen [6] = assay: Biodistribution in ddY mouse spleen at 0.2 to 0.3 uCi, iv after 2 mins; type: ADME, organism-based; settings: in vivo
Lung [7] = assay: Biodistribution in ddY mouse lung at 0.2 to 0.3 uCi, iv after 2 mins; type: ADME, organism-based; settings: in vivo
Stomach [8] = assay: Biodistribution in ddY mouse stomach at 0.2 to 0.3 uCi, iv after 2 mins; type: ADME, organism-based; settings: in vivo
Heart [9] = assay: Biodistribution in ddY mouse heart at 0.2 to 0.3 uCi, iv after 2 mins; type: ADME, organism-based; settings: in vivo
Brain [10] = assay: Biodistribution in ddY mouse brain at 0.2 to 0.3 uCi, iv after 2 mins; type: ADME, organism-based; settings: in vivo
Blood [11] = assay: Biodistribution in ddY mouse blood at 0.2 to 0.3 uCi, iv after 30 mins; type: ADME, organism-based; settings: in vivo, 0.5 h
Liver [12] = assay: Biodistribution in ddY mouse liver at 0.2 to 0.3 uCi, iv after 30 mins; type: ADME, organism-based; settings: in vivo, 0.5 h
Kidney [13] = assay: Biodistribution in ddY mouse kidney at 0.2 to 0.3 uCi, iv after 30 mins; type: ADME, organism-based; settings: in vivo, 0.5 h
Intestine [14] = assay: Biodistribution in ddY mouse intestine at 0.2 to 0.3 uCi, iv after 30 mins; type: ADME, organism-based; settings: in vivo, 0.5 h
Spleen [15] = assay: Biodistribution in ddY mouse spleen assessed as at 0.2 to 0.3 uCi, iv after 30 mins; type: ADME, organism-based; settings: in vivo, 0.5 h
Lung [16] = assay: Biodistribution in ddY mouse lung at 0.2 to 0.3 uCi, iv after 30 mins; type: ADME, organism-based; settings: in vivo, 0.5 h
Stomach [17] = assay: Biodistribution in ddY mouse stomach after 30 mins; type: ADME, organism-based; settings: in vivo, 0.5 h
Heart [18] = assay: Biodistribution in ddY mouse heart at 0.2 to 0.3 uCi, iv after 30 mins; type: ADME, organism-based; settings: in vivo, 0.5 h
Brain [19] = assay: Biodistribution in ddY mouse brain at 0.2 to 0.3 uCi, iv after 30 mins; type: ADME, organism-based; settings: in vivo, 0.5 h

| Compound | Ki [1] [µM] | Drug uptake (Blood [2]) [% ID/g] | Drug uptake (Liver [3]) [% ID/g] | Drug uptake (Kidney [4]) [% ID/g] | Drug uptake (Intestine [5]) [% ID/g] | Drug uptake (Spleen [6]) [% ID/g] | Drug uptake (Lung [7]) [% ID/g] | Drug uptake (Stomach [8]) [%ID] | Drug uptake (Heart [9]) [% ID/g] | Drug uptake (Brain [10]) [% ID/g] | Drug uptake (Blood [11]) [% ID/g] | Drug uptake (Liver [12]) [% ID/g] | Drug uptake (Kidney [13]) [% ID/g] | Drug uptake (Intestine [14]) [% ID/g] | Drug uptake (Spleen [15]) [% ID/g] | Drug uptake (Lung [16]) [% ID/g] | Drug uptake (Stomach [17]) [%ID] | Drug uptake (Heart [18]) [% ID/g] | Drug uptake (Brain [19]) [% ID/g] |
| --- | --- | --- | --- | --- | --- | --- | --- | --- | --- | --- | --- | --- | --- | --- | --- | --- | --- | --- | --- |
| CN(C)c1ccc(/C=C/C(=O)c2ccc([125I])cc2)cc1 |  | 1.85 | 10.02 | 5.32 | 1.31 | 1.37 | 3.4 | 0.96 | 3.92 | 2.04 | 1.4 | 11.04 | 11.62 | 10.38 | 0.6 | 1.84 | 2.45 | 1.18 | 0.49 |
| COc1ccc(/C=C/C(=O)c2ccc([125I])cc2)cc1 |  | 1.34 | 5.97 | 4.61 | 1.93 | 1.38 | 3.81 | 0.9 | 3.74 | 2.45 | 0.46 | 4.03 | 3.27 | 10.19 | 0.29 | 0.79 | 2.11 | 0.63 | 0.22 |
| O=C(/C=C/c1ccc(O)cc1)c1ccc([125I])cc1 |  | 1.89 | 8.39 | 9.3 | 1.87 | 3.56 | 10.04 | 1.22 | 5.92 | 3.57 | 0.57 | 6.64 | 3.51 | 12.94 | 1.04 | 1.04 | 2.16 | 0.49 | 0.4 |
| CNc1ccc(/C=C/C(=O)c2ccc([125I])cc2)cc1 |  | 1.64 | 7.2 | 6.62 | 2.06 | 2.85 | 8.3 | 1.02 | 4.72 | 4.72 | 1.47 | 8.61 | 11.43 | 10.46 | 0.8 | 4.01 | 1.28 | 1.08 | 0.61 |
| Nc1c(/N=N/c2ccc(-c3ccc(/N=N/c4cc(S(=O)(=O)O)c5ccccc5c4N)cc3)cc2)cc(S(=O)(=O)O)c2ccccc12 [CONGO RED] | > 10 |  |  |  |  |  |  |  |  |  |  |  |  |  |  |  |  |  |  |
| Cc1ccc2c(c1)sc(-c1ccc(N(C)C)cc1)[n+]2C [THIOFLAVIN T] | > 10 |  |  |  |  |  |  |  |  |  |  |  |  |  |  |  |  |  |  |

The next lines start with the values.

| Ki [1] [µM] | Drug uptake (Blood [2]) [% ID/g] | Drug uptake (Liver [3]) [% ID/g] | Drug uptake (Kidney [4]) [% ID/g] | Drug uptake (Intestine [5]) [% ID/g] | Drug uptake (Spleen [6]) [% ID/g] | Drug uptake (Lung [7]) [% ID/g] | Drug uptake (Stomach [8]) [%ID] | Drug uptake (Heart [9]) [% ID/g] | Drug uptake (Brain [10]) [% ID/g] | Drug uptake (Blood [11]) [% ID/g] | Drug uptake (Liver [12]) [% ID/g] | Drug uptake (Kidney [13]) [% ID/g] | Drug uptake (Intestine [14]) [% ID/g] | Drug uptake (Spleen [15]) [% ID/g] | Drug uptake (Lung [16]) [% ID/g] | Drug uptake (Stomach [17]) [%ID] | Drug uptake (Heart [18]) [% ID/g] | Drug uptake (Brain [19]) [% ID/g] | Compound |
| --- | --- | --- | --- | --- | --- | --- | --- | --- | --- | --- | --- | --- | --- | --- | --- | --- | --- | --- | --- |
| 0.0214 |  |  |  |  |  |  |  |  |  |  |  |  |  |  |  |  |  |  | O=C(/C=C/c1ccc(O)cc1)c1ccc(I)cc1 |
| 0.0063 |  |  |  |  |  |  |  |  |  |  |  |  |  |  |  |  |  |  | COc1ccc(/C=C/C(=O)c2ccc(I)cc2)cc1 |
| 0.0029 |  |  |  |  |  |  |  |  |  |  |  |  |  |  |  |  |  |  | CN(C)c1ccc(/C=C/C(=O)c2ccc(I)cc2)cc1 |
|  | 3.62 | 7.52 | 6.96 | 1.84 | 1.53 | 4.74 | 0.87 | 4.59 | 4.49 | 1.46 | 8.16 | 6.34 | 11.27 | 0.6 | 1.43 | 1.58 | 0.84 | 0.46 | Nc1ccc(/C=C/C(=O)c2ccc([125I])cc2)cc1 |
| 0.105 |  |  |  |  |  |  |  |  |  |  |  |  |  |  |  |  |  |  | Nc1ccc(/C=C/C(=O)c2ccc(I)cc2)cc1 |
| 0.0063 |  |  |  |  |  |  |  |  |  |  |  |  |  |  |  |  |  |  | CNc1ccc(/C=C/C(=O)c2ccc(I)cc2)cc1 |
